Laboratory results taken from article PMC4184702 (Pharmacology Research & Perspectives, 2014).
“Also recorded” adds a separate entry of the source.

Legend:
M1 muscarinic receptor = target: T1, M1 muscarinic receptor (Homo sapiens, UniProt P11229); assay: PDSP primary binding, M1; settings: n = 4, read-out: Inhibition (primary binding competition efficacy), M1
T1 construct: purchased NIMH Psychoactive Drug Screening Program (PDSP)
Procedure: (§1) For experimental details, please refer to the Psychoactive Drug Screening Program (PDSP) web site http://pdsp.med.unc.edu/.
(§2) ^a The default concentration for primary binding experiments is 10 µM (n = 4). ^b Negative inhibition represents a stimulation of binding. ^c BZPR: Benzodiazepine Receptors (rat brain site). ^d DOR: Delta Opioid Receptor; KOR: Kappa Opioid Receptor; MOR: Mu Opioid Receptor. ^e DAT: Dopamine Transporter; NET: Norepinephrine Transporter; SERT: Serotonin Transporter. ^f NMDA: N-methyl-D-aspartate receptor.

CYP2C9 = target: T2, CYP2C9 (Homo sapiens, UniProt P11712); assay: CYP2C9 inhibition, HLM, diclofenac substrate; format: in vitro ADME; settings: 1.0E-05 M
T2 construct: from tissue; host or cells: human liver microsomes (HLM)
Description: (§3) Supplement prp20002-e00026-sd1.doc, table 3: Table 3.

5-HT3 = target: T3, 5-HT3 (Homo sapiens, UniProt P46098); assay: PDSP primary binding, 5-HT3; settings: n = 4, read-out: Inhibition (primary binding competition efficacy), 5-HT3
T3 construct: purchased NIMH Psychoactive Drug Screening Program (PDSP)
Procedure: as §1, §2

M5 muscarinic receptor = target: T4, M5 muscarinic receptor (Homo sapiens, UniProt P08912); assay: PDSP primary binding, M5; settings: n = 4, read-out: Inhibition (primary binding competition efficacy), M5
T4 construct: purchased NIMH Psychoactive Drug Screening Program (PDSP)
Procedure: as §1, §2

5-HT6 = target: T5, 5-HT6 (Homo sapiens, UniProt P50406); assay: PDSP primary binding, 5-HT6; settings: n = 4, read-out: Inhibition (primary binding competition efficacy), 5-HT6
T5 construct: purchased NIMH Psychoactive Drug Screening Program (PDSP)
Procedure: as §1, §2

5-HT1A = target: T6, 5-HT1A (Homo sapiens, UniProt P08908); assay: PDSP primary binding, 5-HT1A; settings: n = 4, read-out: Inhibition (primary binding competition efficacy), 5-HT1A
T6 construct: purchased NIMH Psychoactive Drug Screening Program (PDSP)
Procedure: as §1, §2

M3 muscarinic receptor = target: T7, M3 muscarinic receptor (Homo sapiens, UniProt P20309); assay: PDSP primary binding, M3; settings: n = 4, read-out: Inhibition (primary binding competition efficacy), M3
T7 construct: purchased NIMH Psychoactive Drug Screening Program (PDSP)
Procedure: as §1, §2

5-HT5A = target: T8, 5-HT5A (Homo sapiens, UniProt P47898); assay: PDSP primary binding, 5-HT5A; settings: n = 4, read-out: Inhibition (primary binding competition efficacy), 5-HT5A
T8 construct: purchased NIMH Psychoactive Drug Screening Program (PDSP)
Procedure: as §1, §2

β1 adrenergic receptor = target: T9, β1 adrenergic receptor (Homo sapiens, UniProt P08588); assay: PDSP primary binding, β1; settings: n = 4, read-out: Inhibition (primary binding competition efficacy), β1
T9 construct: purchased NIMH Psychoactive Drug Screening Program (PDSP)
Procedure: as §1, §2

CYP2D6 = target: T10, CYP2D6 (Homo sapiens, UniProt P10635); assay: CYP2D6 inhibition, HLM, dextromethorphan substrate; format: in vitro ADME; settings: 1.0E-05 M
T10 construct: from tissue; host or cells: human liver microsomes (HLM)
Description: as §3

CYP1A = target: T11, CYP1A (Homo sapiens, UniProt P05177); assay: CYP1A inhibition, HLM, phenacetin substrate; format: in vitro ADME; settings: 1.0E-05 M
T11 construct: from tissue; host or cells: human liver microsomes (HLM)
Description: as §3

strain TA100 = assay: Ames test, strain TA100; format: cell-based
[1] = target: T12, DAT: Dopamine Transporter (Homo sapiens, UniProt Q01959); assay: PDSP primary binding, DAT; settings: n = 4, read-out: Inhibition (primary binding competition efficacy), DAT
T12 construct: purchased NIMH Psychoactive Drug Screening Program (PDSP)
Procedure: as §1, §2

Balb/CJ mice = assay: Acute toxicity / mortality in Balb/C mice; settings: 300 mg/kg, wild-type Balb/CJ mice
human α7-nAChRs = target: T13, human α7-nAChRs (Homo sapiens, UniProt P36544); assay: Whole-cell current recording, SH-EP1-hα7 cells; format: cell-based; settings: 1 μmol/L
T13 construct: expressed in transfected cells; host or cells: SH-EP1 human epithelial cells (SH-EP1-hα7)
Procedure: Glass microelectrodes made with 3–5 MΩ resistance between pipette and extracellular solutions were used to obtain >1 GΩ seals on the cell surface just prior to conversion into standard whole-cell current recording mode by applying suction to the pipette. After allowing exchange between the pipette solution and the cytosol for 5 10 min, cells with attached pipettes were lifted gently from the bottom of the culture dish via micromanipulation of the pipette to improve kinetics of solution exchange around the cell. Access resistance (Ra) was measured and accepted if it was less than 20 MΩ. Pipette and whole-cell capacitance were both minimized, and series resistance was compensated routinely to 80%. Cells were voltage-clamped at −60 mV, and inward currents induced by indicated nicotinic agonists at the specified concentrations were measured (200B amplifier; Molecular Devices, Sunnyvale, CA). […] Data acquisition and analyses were conducted using pClamp9.2 (Molecular Devices), and results were plotted by using Origin 5.0 (OriginLab Corp., North Hampton, MA). All experiments were performed at room temperature (22 ± 1°C).
The external solution for SH-EP1 cell recording contained 120 mmol/L NaCl, 5 mmol/L KCl, 2 mmol/L MgCl2, 2 mmol/L CaCl2, 25 mmol/L D-glucose, and 10 mmol/L HEPES<< HEPES >>, pH 7.4 (Tris-base). For conventional whole-cell recording, the pipette solution contained 110 mmol/L Tris-phosphate dibasic, 28 mmol/L Tris-base, 11 mmol/L EGTA<< EGTA >>, 2 mmol/L MgCl2, 0.5 mmol/L CaCl2, and 4 mmol/L Na-ATP at pH 7.3. Drugs (standard compounds were obtained from Sigma Chemical, St. Louis, MO) were delivered to the recorded cell by a computer-controlled perfusion system (SF-77B Perfusion Fast Step, Warner Instruments Incorporated, A Harvard Bioscience Company, Holliston, MA), allowing the recorded cell can be completely surrounded by the applied drug within 20 msec. The interval between drug applications (2 min) was optimized specifically to ensure stability of nAChR responsiveness (without functional rundown).

[2] = Bacterial cytotoxicity, strain TA1535; format: cell-based; settings: Salmonella typhimurium, bacterial tester strain TA1535 without S9, read-out: Cytotoxicity (% of Control Values)
Description: Supplement prp20002-e00026-sd1.doc, table 4: Table 4.

V1A = target: T14, V1A (Homo sapiens, UniProt P37288); assay: PDSP primary binding, V1A; settings: n = 4, read-out: Inhibition (primary binding competition efficacy), V1A
T14 construct: purchased NIMH Psychoactive Drug Screening Program (PDSP)
Procedure: as §1, §2

5-HT1E = target: T15, 5-HT1E (Homo sapiens, UniProt P28566); assay: PDSP primary binding, 5-HT1E; settings: n = 4, read-out: Inhibition (primary binding competition efficacy), 5-HT1E
T15 construct: purchased NIMH Psychoactive Drug Screening Program (PDSP)
Procedure: as §1, §2

T13 sequence (P36544 23-502): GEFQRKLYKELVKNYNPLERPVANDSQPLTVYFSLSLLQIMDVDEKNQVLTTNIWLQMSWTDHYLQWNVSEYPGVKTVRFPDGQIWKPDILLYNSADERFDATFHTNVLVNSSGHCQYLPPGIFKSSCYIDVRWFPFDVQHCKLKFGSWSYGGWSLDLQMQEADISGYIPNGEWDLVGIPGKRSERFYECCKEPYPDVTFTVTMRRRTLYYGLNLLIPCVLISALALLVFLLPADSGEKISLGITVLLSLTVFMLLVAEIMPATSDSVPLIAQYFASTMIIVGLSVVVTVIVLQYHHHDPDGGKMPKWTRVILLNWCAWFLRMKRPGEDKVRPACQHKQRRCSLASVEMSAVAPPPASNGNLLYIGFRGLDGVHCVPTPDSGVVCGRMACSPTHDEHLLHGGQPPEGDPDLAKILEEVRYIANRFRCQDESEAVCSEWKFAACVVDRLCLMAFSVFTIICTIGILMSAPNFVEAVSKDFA
T3 sequence (P46098 24-478): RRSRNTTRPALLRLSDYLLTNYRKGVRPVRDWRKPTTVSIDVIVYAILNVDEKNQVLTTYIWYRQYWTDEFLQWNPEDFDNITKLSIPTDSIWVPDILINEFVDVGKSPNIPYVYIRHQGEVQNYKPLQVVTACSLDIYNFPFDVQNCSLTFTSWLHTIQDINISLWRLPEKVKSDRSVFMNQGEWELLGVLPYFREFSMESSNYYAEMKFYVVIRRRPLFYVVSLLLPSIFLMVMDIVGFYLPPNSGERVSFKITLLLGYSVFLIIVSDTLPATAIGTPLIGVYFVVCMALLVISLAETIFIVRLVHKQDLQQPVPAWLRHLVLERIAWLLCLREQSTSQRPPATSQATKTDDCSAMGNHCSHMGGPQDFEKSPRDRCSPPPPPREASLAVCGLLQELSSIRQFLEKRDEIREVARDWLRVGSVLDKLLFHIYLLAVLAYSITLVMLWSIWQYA
T1 sequence (P11229 whole entry): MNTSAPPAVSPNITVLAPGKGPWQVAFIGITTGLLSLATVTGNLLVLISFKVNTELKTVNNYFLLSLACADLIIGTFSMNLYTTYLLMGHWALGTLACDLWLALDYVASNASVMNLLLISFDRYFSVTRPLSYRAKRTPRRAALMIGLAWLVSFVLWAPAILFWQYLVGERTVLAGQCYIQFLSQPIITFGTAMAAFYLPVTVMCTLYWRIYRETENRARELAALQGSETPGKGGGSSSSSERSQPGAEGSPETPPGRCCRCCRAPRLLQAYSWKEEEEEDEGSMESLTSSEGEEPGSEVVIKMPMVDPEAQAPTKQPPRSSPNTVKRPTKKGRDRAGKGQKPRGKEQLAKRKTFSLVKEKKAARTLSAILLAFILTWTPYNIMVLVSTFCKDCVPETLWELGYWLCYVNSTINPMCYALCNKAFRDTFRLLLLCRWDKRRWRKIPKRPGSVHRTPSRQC
T5 sequence (P50406 whole entry): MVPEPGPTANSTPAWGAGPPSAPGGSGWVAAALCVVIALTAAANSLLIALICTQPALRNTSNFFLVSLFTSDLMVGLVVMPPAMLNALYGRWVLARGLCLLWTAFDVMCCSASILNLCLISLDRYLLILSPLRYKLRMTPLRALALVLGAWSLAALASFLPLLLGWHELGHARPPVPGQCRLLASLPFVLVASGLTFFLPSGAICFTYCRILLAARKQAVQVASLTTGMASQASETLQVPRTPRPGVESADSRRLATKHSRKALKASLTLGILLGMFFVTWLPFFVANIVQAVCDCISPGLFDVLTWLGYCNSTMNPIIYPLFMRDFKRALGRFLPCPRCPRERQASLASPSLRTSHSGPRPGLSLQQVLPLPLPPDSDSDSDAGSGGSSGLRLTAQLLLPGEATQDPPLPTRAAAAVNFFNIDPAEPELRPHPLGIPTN
T2 sequence (P11712 whole entry): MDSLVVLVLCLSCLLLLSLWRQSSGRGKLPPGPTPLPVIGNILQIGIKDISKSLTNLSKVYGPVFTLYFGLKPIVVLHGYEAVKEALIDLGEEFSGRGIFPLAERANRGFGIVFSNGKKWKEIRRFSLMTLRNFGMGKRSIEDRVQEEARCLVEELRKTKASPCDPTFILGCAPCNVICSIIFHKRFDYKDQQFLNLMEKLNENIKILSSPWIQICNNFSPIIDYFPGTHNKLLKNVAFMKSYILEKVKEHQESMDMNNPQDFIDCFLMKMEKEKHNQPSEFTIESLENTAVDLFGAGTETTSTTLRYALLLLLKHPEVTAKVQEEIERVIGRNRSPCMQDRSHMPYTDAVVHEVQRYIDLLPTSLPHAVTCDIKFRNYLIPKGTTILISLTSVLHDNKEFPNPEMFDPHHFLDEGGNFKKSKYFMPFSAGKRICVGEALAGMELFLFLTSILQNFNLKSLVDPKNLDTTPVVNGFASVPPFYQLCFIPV
T12 sequence (Q01959 whole entry): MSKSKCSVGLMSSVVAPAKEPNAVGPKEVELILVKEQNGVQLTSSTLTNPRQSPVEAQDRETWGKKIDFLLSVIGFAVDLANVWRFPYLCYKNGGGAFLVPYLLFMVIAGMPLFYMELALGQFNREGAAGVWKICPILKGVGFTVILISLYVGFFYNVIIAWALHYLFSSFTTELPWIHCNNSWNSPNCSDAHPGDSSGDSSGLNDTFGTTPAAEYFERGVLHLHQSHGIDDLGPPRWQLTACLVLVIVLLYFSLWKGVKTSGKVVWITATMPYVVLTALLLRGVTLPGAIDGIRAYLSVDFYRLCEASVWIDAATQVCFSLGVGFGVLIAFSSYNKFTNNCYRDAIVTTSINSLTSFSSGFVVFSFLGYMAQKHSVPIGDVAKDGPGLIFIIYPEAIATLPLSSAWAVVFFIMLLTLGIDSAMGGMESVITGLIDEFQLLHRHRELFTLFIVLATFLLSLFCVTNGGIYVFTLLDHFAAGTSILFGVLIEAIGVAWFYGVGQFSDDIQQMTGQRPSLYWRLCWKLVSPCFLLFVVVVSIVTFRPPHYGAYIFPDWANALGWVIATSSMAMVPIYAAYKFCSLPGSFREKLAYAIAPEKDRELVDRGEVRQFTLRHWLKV
T8 sequence (P47898 whole entry): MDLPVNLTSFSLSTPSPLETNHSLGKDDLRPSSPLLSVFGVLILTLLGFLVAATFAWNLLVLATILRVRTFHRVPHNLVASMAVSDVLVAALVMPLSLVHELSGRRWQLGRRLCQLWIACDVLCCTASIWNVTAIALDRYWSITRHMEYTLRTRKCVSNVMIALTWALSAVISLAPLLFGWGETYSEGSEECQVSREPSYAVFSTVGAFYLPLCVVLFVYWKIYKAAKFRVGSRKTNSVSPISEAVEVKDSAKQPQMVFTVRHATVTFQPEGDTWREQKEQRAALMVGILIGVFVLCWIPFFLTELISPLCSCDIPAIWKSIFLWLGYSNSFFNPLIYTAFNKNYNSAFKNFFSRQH
T15 sequence (P28566 whole entry): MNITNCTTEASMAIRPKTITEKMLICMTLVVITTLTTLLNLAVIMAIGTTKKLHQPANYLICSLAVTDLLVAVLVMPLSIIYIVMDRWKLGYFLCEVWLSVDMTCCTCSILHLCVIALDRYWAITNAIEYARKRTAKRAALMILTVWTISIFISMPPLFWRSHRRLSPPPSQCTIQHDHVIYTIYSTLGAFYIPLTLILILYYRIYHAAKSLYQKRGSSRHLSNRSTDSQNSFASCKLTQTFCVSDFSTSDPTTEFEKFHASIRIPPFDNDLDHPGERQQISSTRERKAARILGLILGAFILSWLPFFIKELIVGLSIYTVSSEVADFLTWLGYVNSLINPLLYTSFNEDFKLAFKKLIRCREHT
T11 sequence (P05177 2-516 limits assumed): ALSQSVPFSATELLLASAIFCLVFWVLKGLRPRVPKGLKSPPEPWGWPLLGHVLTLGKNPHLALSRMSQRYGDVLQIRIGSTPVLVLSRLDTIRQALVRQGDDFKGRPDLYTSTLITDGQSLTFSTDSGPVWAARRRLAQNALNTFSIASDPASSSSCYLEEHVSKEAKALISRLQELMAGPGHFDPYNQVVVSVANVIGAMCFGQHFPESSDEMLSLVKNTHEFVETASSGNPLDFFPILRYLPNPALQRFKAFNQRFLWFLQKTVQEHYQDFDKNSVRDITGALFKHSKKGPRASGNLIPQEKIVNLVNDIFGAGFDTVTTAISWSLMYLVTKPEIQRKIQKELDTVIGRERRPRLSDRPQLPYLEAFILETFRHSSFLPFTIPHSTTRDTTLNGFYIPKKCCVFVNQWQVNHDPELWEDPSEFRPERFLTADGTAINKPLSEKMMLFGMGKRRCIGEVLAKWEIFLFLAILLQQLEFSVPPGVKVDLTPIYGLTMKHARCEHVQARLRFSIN
T9 sequence (P08588 whole entry): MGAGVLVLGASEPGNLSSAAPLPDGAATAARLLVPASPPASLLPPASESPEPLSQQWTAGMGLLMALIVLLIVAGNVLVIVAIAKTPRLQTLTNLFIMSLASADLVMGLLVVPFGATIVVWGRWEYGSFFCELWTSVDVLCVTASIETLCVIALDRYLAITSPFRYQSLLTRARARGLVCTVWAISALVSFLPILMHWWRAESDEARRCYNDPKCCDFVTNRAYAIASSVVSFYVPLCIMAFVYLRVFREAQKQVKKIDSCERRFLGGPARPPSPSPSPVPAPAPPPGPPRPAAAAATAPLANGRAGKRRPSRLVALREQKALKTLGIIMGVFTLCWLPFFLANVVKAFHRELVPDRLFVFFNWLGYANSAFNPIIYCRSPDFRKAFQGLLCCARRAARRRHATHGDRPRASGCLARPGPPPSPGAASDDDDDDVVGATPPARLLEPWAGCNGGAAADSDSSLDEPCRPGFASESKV

With `OCCc1cc(-c2cncc(OC[C@@H]3CCN3)c2)on1` [LF-3-88, 2-[5-[5-(2(S)-azetidinylmethoxyl)-3-pyridyl]-3-isoxazolyl]ethanol] the inhibition at 10 µM (M1 muscarinic receptor) was 8.8%, the “CYP2C9 Inhibition” value (CYP2C9) was 4% and the inhibition at 10 µM (5-HT3) was -1%. For the same molecule, the inhibition at 10 µM (M5 muscarinic receptor) was -9.4%, the inhibition at 10 µM (5-HT6) was -1.9% and the inhibition at 10 µM (5-HT1A) was 4.2%. The inhibition at 10 µM (M3 muscarinic receptor) was 0.9%, the inhibition at 10 µM (5-HT5A) was 13.2% and the inhibition at 10 µM (β1 adrenergic receptor) was 1.7%. The “CYP2D6 Inhibition” value (CYP2D6) was -0.4%, the “CYP1A Inhibition” value (CYP1A) was 13% and the “Ames test Result” value (strain TA100; strain TA100 + S9, 1.0E-04 M) was “Negative”. The “Ames test Result” value (strain TA100; strain TA100 + S9, 1.0E-05 M) was “Negative”, the “Ames test Result” value (strain TA100; strain TA100 + S9, 5.0E-05 M) was “Negative” and the “Ames test Result” value (strain TA100; strain TA100 + S9, 5.0E-06 M) was “Negative”. The “Ames test Result” value (strain TA100; strain TA100 – S9, 1.0E-04 M) was “Negative”, the “Ames test Result” value (strain TA100; strain TA100 – S9, 1.0E-05 M) was “Negative” and the “Ames test Result” value (strain TA100; strain TA100 – S9, 5.0E-05 M) was “Negative”. For the same molecule, the “Ames test Result” value (strain TA100; strain TA100 – S9, 5.0E-06 M) was “Negative”, the “mutagenic potential (Ames), TA100” value (strain TA100; with or without S9, 5, 10, 50, or 100 μmol/L) was “negative” and the inhibition at 10 µM [1] was 18.6%. The mortality (Balb/CJ mice) was “no mortality”, the “agonist activity at α7-nAChRs (whole-cell)” value (human α7-nAChRs) was “no agonist activity” and the “effect of coapplication with choline at α7-nAChRs (whole-cell)” value (human α7-nAChRs; 10 mmol/L choline) was “no effect”. For the same molecule, the “inhibition of activation by 10 mmol/L choline at α7-nAChRs (whole-cell)” value (human α7-nAChRs; 2-min pretreatment) was “slightly inhibit; also recorded: only weakly”, the viability at 0.0001 M ([2]; strain TA1535 – S9, 1.0E-04 M) was 117% and the viability at 10 µM ([2]; strain TA1535 – S9, 1.0E-05 M) was 97%. For the same molecule, the viability at 1.25 µM ([2]; strain TA1535 – S9, 1.25E-06 M) was 105%, the viability at 25 µM ([2]; strain TA1535 – S9, 2.5E-05 M) was 104% and the viability at 2.5 µM ([2]; strain TA1535 – S9, 2.5E-06 M) was 102%. The viability at 50 µM ([2]; strain TA1535 – S9, 5.0E-05 M) was 109%, the viability at 5 µM ([2]; strain TA1535 – S9, 5.0E-06 M) was 100% and the viability at 625 nM ([2]; strain TA1535 – S9, 6.25E-07 M) was 99%. It also gave an inhibition at 10 µM (V1A) of 24.7% and an inhibition at 10 µM (5-HT1E) of -3%.
